Reference: US4605655A, “Antipsychotic 1-fluorophenylbutyl-4-(2-pyrimidinyl)piperazine derivatives” (Bristol-Myers Company, priority 1984, dated 1986)
Entries after “also recorded” stand apart in the source; their conditions may differ. Like-named read-outs stand apart in the source and are kept apart here.

What was measured:
[1] = test system: norepinephrine lethality (α1-adrenergic blockade); assay: Inhibition of Norepinephrine (NE) Lethality; type: in vivo; conditions: po; read-out: Inhibition of NE Lethality ED50 (alpha-block)
Source text: 5. Inhibition of Norepinephrine Lethality--drug inhibition of the lethality of noradrenergic drug norepinephrine indicates α1 -adrenergic blockade.

[2] = test system: α2-adrenergic binding sites; assay: α2-adrenergic receptor binding; conditions: in words
Source text: (§1) As further indication of the psychotropic activity and specificity of the instant compounds, state of the art in vitro central nervous system receptor binding methodology can be employed. Certain compounds (commonly referred to as ligands) have been identified which preferentially bind to specific high affinity sites in brain tissue dealing with psychotropic activity or potential for side effects. Inhibition of radiolabeled ligand binding to such specific high affinity sites is considered a measure of the compound's ability to affect corresponding central nervous system function or cause side effects in vivo. This principal is employed in the following assays which are given by way of example.
Rosenblatt, et al., Brain Res., 160: 186
(1979); U'Prichard, et al., Science, 199:
197 (1978); U'Prichard, et al., Molec.

GABA binding sites = assay: GABA receptor binding; conditions: in words
Source text: as §1

[3] = test system: serotonergic binding sites; assay: Serotonergic receptor binding; conditions: in words
Source text: as §1
Peroutka and Snyder, Molec. Pharmacol.,

[4] = Conditioned Avoidance Response (CAR); type: in vivo, trained fasted rats
Source text: 1. Conditioned Avoidance Response (CAR)--measure of a drug's tranquilizing activity as determined by its attenuation of avoidance response to electrical shock in trained fasted rats. cf: Albert, Pharmacologist, 4, 152 (1962); Wu, et al, J. Med. Chem., 12, 876-881 (1969).

opiate binding sites = assay: Opiate receptor binding; conditions: in words
Source text: as §1

α1 receptor = assay: α1 binding vs. [^3 H]WB4101
Source text: as §1, with “Certain compounds (commonly referred to as ligands) have been identified which preferentially bind to specific high affinity sites in brain tissue dealing with psychotropic activity or potential for side effects.” left out

[5] = test system: apomorphine stereotypy (dopaminergic activity); assay: Inhibition of Apomorphine-Induced (APO) Stereotypy; type: in vivo, rats
Source text: 2. Inhibition of Apomorphine-Induced (APO) Stereotype--an assessment of blockade of dopaminergic activity in rats as measured by attentuation of the behavioral syndrome caused by the dopamine agonist, apomorphine. cf. Janssen, et al, Arzneimittel. Forsch., 17, 841 (1966).

[6] = target: Muscarinic Cholinergic receptor; assay: Muscarinic cholinergic receptor binding
Source text: as §1, with “Certain compounds (commonly referred to as ligands) have been identified which preferentially bind to specific high affinity sites in brain tissue dealing with psychotropic activity or potential for side effects.” left out
Cholinergic Yamamura, et al., Proc. Natn. Acad. Sci.

[7] = test system: Dopamine receptor (striatal tissue); assay: Dopamine (DA) receptor binding vs. [^3 H]spiperone
Source text: as §1, with “Certain compounds (commonly referred to as ligands) have been identified which preferentially bind to specific high affinity sites in brain tissue dealing with psychotropic activity or potential for side effects.” left out
Dopamine Burt, et al., Molec. Pharmacol., 12, 800

Catalepsy = type: in vivo, rats; conditions: for ED50: rat, in vivo, po
[8] = Catalepsy Reversal (neuroleptic-induced catalepsy); type: in vivo, rat; conditions: for reversal of neuroleptic-induced catalepsy, potency relative to racemic material: compared with racemic BMY 14802; for Catalepsy Reversal ED50: p.o.
Source text: 4. Catalepsy Reversal--measure of a drug's ability to reverse neuroleptic-induced catalepsy in the rat.

[9] = in rats; compared with racemic BMY 14802; in words
[10] = Rattus norvegicus, po; read-out: CAR ED50
[11] = Rattus norvegicus, po; read-out: Inhibition of APO-Stereotypy ED50

With `Cl.OC(CCCN1CCN(c2ncc(F)cn2)CC1)c1ccc(F)cc1` (racemic) [MJ 14802, 4-[4-[5-Fluoro-2-pyrimidinyl]-1-piperazinyl]-1-(4-fluorophenyl)butanol Hydrochloride] the ED50 [1] was over 100 mg/kg, the “activity at α2-adrenergic binding sites” value [2] was “essentially inactive” and the “activity at GABA binding sites” value (GABA binding sites) was “essentially inactive”. The “activity at serotonergic binding sites” value [3] was “essentially inactive”, the ED50 ([4]; Rattus norvegicus, po, read-out: CAR ED50) was 26.4 mg/kg and the “duration of action in the inhibition of the CAR” value ([4]; rat, in vivo) was over 7 h. The “activity at opiate binding sites” value (opiate binding sites) was “essentially inactive”, the α1-adrenergic activity (α1 receptor; in words) was “lacks anticholinergic and α1 -adrenergic activities” and the IC50 (α1 receptor; vs. [^3 H]WB4101) was 0.52 µM. The ED50 ([5]; Rattus norvegicus, po, read-out: Inhibition of APO-Stereotypy ED50) was 33 mg/kg, the “duration of action in the inhibition of apomorphine stereotypy” value ([5]; rat, in vivo) was 4 h and the IC50 [6] was over 1 µM. The “activity at cholinergic binding sites” value ([6]; in words, Hydrochloride) was “essentially inactive; also recorded: lacks anticholinergic”, the dopamine receptor binding ([7]; in words) was “very weak dopamine receptor binding” and the IC50 ([7]; vs. [^3 H]spiperone, read-out: DA Binding (vs. [^3 H]spip.) IC50) was 6.4 µM. For the same compound, the catalepsy production (Catalepsy; in words) was “fails to cause catalepsy”, the ED50 (Catalepsy) was over 100 mg/kg and the ED50 ([8]; Rattus norvegicus, po, read-out: Catalepsy Reversal ED50) was 16.9 mg/kg. The “reversal of neuroleptic-induced catalepsy” value ([8]; in words) was “reverses neuroleptic-induced catalepsy”.

In the case of `OC(CCCN1CCN(c2ncc(F)cn2)CC1)c1ccc(F)cc1` (single isomer, unassigned) [(+)-- enantiomer of BMY 14802, (+)--α-(4-Fluorophenyl)-4-(5-fluoro-2-pyrimidinyl)-1-piperazinebutanol Hydrate], the “inhibition of apomorphine stereotypy, potency relative to racemic material” value [5, 9] is reported as “The converse was true” and the “reversal of neuroleptic-induced catalepsy, potency relative to racemic material” value ([8]; in words) is reported as “The converse was true”.

With `O.OC(CCCN1CCN(c2ncc(F)cn2)CC1)c1ccc(F)cc1` (single isomer, unassigned) [(-)-- enantiomer, (-)-α-(4-Fluorophenyl)-4-(5-fluoro-2-pyrimidinyl)-1-piperazinebutanol Hydrate] the “inhibition of apomorphine stereotypy, potency relative to racemic material” value [5, 9] was “more potent than racemic material” and the “reversal of neuroleptic-induced catalepsy, potency relative to racemic material” value ([8]; in words) was “less potent”.

`CN1CCN(C2=Nc3cc(Cl)ccc3Nc3ccccc32)CC1` [Clozapine, reference compound] gave an ED50 [1] of 3.5 mg/kg, an ED50 [4, 10] of 24 mg/kg and an ED50 [5, 11] of 49.2 mg/kg. The ED50 (Catalepsy) was over 200 mg/kg and the “Catalepsy Reversal ED50” value [8] was “I”.

`CSc1ccc2c(c1)N(CCC1CCCCN1C)c1ccccc1S2` (stereo not shown) [Thioridazine, reference compound] showed an ED50 [1] of 2.2 mg/kg, an ED50 [4, 10] of 126 mg/kg and an ED50 [5, 11] of 280 mg/kg. For the same compound, the ED50 (Catalepsy) was 45.2 mg/kg and the “Catalepsy Reversal ED50” value [8] was “I”.

For `OC(CCCN1CCN(c2ncccn2)CC1)c1ccc(F)cc1` (stereo not shown) [des-fluoro analog of MJ 14802], the “time after which CAR activity is lost” value ([4]; rat, in vivo) was “lost after three hours”.
